Calls of active or inactive are those of the source. No cut-off for these calls is given here.
What was measured:
[1] = test system: Artemia salina; test: Toxicity to Artemia salina; assay type: organism-based; conditions: in vivo
[2] = test system: Spodoptera littoralis; test: Insecticidal activity against Spodoptera littoralis larvae; assay type: functional, organism-based

Structure (SMILES) | Activity [1] | Activity [2]
C[C@@H](CC(=O)NC(=O)c1coc(/C=C/C=C/CCCCCCC(=O)O)cc1=O)C(=O)O [MICROSPHAERONE A] | Non-toxic | inactive
NC(=O)c1coc(/C=C/C=C/CCCCCCC(=O)O)cc1=O [MICROSPHAERONE B] | Non-toxic | inactive

— ChEMBL document CHEMBL1150580, “Microsphaerones A and B, two novel gamma-pyrone derivatives from the sponge-derived fungus Microsphaeropsis sp” (J Nat Prod, 2002)
